From patent US12410208B2, “(2-acetamidyl)thio-beta-D-galactopyranoside derivatives” (Idorsia Pharmaceuticals Ltd, priority 2020, dated 2025) come the findings set out here.

Read-outs that look alike come from different tables or passages of the source.

Test [1] deals with human Gal-1 (hGal-1) (Homo sapiens, UniProt P09382). Description: Competitive binding assay: biotinylated hGal-1 binding to microplate-adsorbed asialofetuin (ASF), spectrophotometric. Conditions: hGal-1 binding to asialofetuin; Table 15; R and S epimers of selected Examples also listed; read-out: IC50 (Galectin-1 inhibition). A digest of the protocol:
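Spectrophotometric competition readout with ABTS after streptavidin-peroxidase (80 ng/mL, 1 h, 4 °C) detection of bound biotinylated hGal-1.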

The target of test [2] is biotinylated human Gal-3 (hGal-3) (Homo sapiens, UniProt P17931). The test can be described thus: Competitive binding assay: biotinylated hGal-3 binding to microplate-adsorbed asialofetuin (ASF), spectrophotometric. A digest of the protocol:
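Serially diluted compounds competed with asialofetuin on the plate for biotinylated human Gal-3 during a 3 h incubation at 4° C. Streptavidin-peroxidase with ABTS gave the spectrophotometric signal. IC50 values were averaged over repeat runs.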

[3] abbreviates: Gal-3 inhibition, Table 5, read-out: IC50.
The mark [4] stands for this setting: Table 6, hGal-3, read-out: IC50 (Gal-3 inhibition).
Setting [5] is: Gal-3 inhibition, Table 4, read-out: IC50.
The mark [6] stands for this setting: Table 9, hGal-3, read-out: IC50 (Gal-3 inhibition).
Where [7] appears, read: Gal-3 inhibition, Table 7, read-out: IC50.

Chain of human Gal-1 (hGal-1) (P09382 whole entry): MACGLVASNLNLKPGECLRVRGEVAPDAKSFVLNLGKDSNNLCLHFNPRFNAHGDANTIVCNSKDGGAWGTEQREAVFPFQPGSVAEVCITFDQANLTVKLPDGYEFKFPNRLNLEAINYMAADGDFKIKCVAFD
Chain of biotinylated human Gal-3 (hGal-3) (P17931 whole entry): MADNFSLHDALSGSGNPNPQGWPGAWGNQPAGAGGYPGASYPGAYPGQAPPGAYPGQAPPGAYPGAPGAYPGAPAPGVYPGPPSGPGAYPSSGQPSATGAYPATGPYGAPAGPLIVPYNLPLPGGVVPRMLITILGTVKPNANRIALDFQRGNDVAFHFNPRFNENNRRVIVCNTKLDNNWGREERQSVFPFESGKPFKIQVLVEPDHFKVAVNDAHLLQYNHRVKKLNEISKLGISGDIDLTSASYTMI

What is called IC50 is the point on the concentration scale where inhibition reaches its midpoint. As to `O=C(C(S[C@@H]1O[C@H](CO)[C@H](O)[C@H](n2cc(-c3cc(F)c(F)c(F)c3)nn2)[C@H]1O)C1(O)CCCC1)N1CCC1` (stereo partly drawn) [Example 2.38.206., 1-(Azetidin-1-yl)-2-(((2S,3R,4S,5R,6R)-3,5-dihydroxy-6-(hydroxymethyl)-4-(4-(3,4,5-trifluorophenyl)-1H-1,2,3-triazol-1-yl)tetrahydro-2H-pyran-2-yl)thio)-2-(1-hydroxycyclopentyl)ethan-1-one], the results for the IC50 in test [1] and in test [2] (setting [3]) were 770 nM and 230 nM, respectively.

For `CCN(C)C(=O)C(S[C@@H]1O[C@H](CO)[C@H](O)[C@H](n2cc(-c3cc(F)c(F)c(F)c3)nn2)[C@H]1O)C(O)(CC)CC` (stereo partly drawn) [Example 2.32.203., 2-(((2S,3R,4S,5R,6R)-3,5-Dihydroxy-6-(hydroxymethyl)-4-(4-(3,4,5-trifluorophenyl)-1H-1,2,3-triazol-1-yl)tetrahydro-2H-pyran-2-yl)thio)-N,3-diethyl-3-hydroxy-N-methylpentanamide], the half-inhibitory concentration (IC50) was determined as 1890 nM in test [1] and 490 nM in test [2] (setting [4]).

For the compound `CN(CCC1CCOCC1)C(=O)C(S[C@@H]1O[C@H](CO)[C@H](O)[C@H](n2cc(-c3cc(F)c(F)c(F)c3)nn2)[C@H]1O)C1(O)CCOCC1` (stereo partly drawn) [Example 2.41.216., 2-(((2S,3R,4S,5R,6R)-3,5-Dihydroxy-6-(hydroxymethyl)-4-(4-(3,4,5-trifluorophenyl)-1H-1,2,3-triazol-1-yl)tetrahydro-2H-pyran-2-yl)thio)-2-(4-hydroxytetrahydro-2H-pyran-4-yl)-N-methyl-N-(2-(tetrahydro-2H-pyran-4-yl)ethyl)acetamide], the results for the IC50 in test [1] and in test [2] (setting [5]) were 380 nM and 60 nM, respectively.

`CO[C@@H]1[C@@H](n2cc(-c3cc(F)c(F)c(F)c3)nn2)[C@@H](O)[C@@H](CO)O[C@H]1S[C@H](C(=O)N(C)c1ccccn1)C1(O)CCC(F)(F)CC1` [Example 2.41.233S.I.]: the half-inhibitory concentration (IC50) in test [1] turned out to be 30 nM; in test [2] (setting [6]) it was 50 nM.

`CO[C@@H]1[C@@H](n2cc(-c3cc(F)c(F)c(F)c3)nn2)[C@@H](O)[C@@H](CO)O[C@H]1S[C@H](C(=O)N1CCC(F)(F)CC1)C1(O)CCC(F)(F)CC1` [Example 2.44.226S.I., (S)-2-(4,4-difluoro-1-hydroxycyclohexyl)-1-(4,4-difluoropiperidin-1-yl)-2-(((2S,3R,4S,5R,6R)-5-hydroxy-6-(hydroxymethyl)-3-methoxy-4-(4-(3,4,5-trifluorophenyl)-1H-1,2,3-triazol-1-yl)tetrahydro-2H-pyran-2-yl)thio)ethan-1-one]: the IC50 in test [1] is 70 nM; in test [2] (Table 12, hGal-3, read-out: IC50 (Gal-3 inhibition)), 50 nM.

Regarding `CCC(O)C(S[C@@H]1O[C@H](CO)[C@H](O)[C@H](n2cc(-c3cc(F)c(F)c(F)c3)nn2)[C@H]1O)C(=O)N(C)CC` (stereo partly drawn) [Example 2.60.203., 2-(((2S,3R,4S,5R,6R)-3,5-Dihydroxy-6-(hydroxymethyl)-4-(4-(3,4,5-trifluorophenyl)-1H-1,2,3-triazol-1-yl)tetrahydro-2H-pyran-2-yl)thio)-N-ethyl-3-hydroxy-N-methylpentanamide], the IC50 in test [1] worked out at 1020 nM; in test [2] (setting [7]) it was 170 nM.

For the compound `CN1CCC(O)(C(S[C@@H]2O[C@H](CO)[C@H](O)[C@H](n3cc(-c4cc(F)c(F)c(F)c4)nn3)[C@H]2O)C(=O)N2CCc3ccccc32)CC1` (stereo partly drawn) [Example 2.40.209., 2-(((2S,3R,4S,5R,6R)-3,5-Dihydroxy-6-(hydroxymethyl)-4-(4-(3,4,5-trifluorophenyl)-1H-1,2,3-triazol-1-yl)tetrahydro-2H-pyran-2-yl)thio)-2-(4-hydroxy-1-methylpiperidin-4-yl)-1-(indolin-1-yl)ethan-1-one], the IC50 amounted to 230 nM in test [1] and 120 nM in test [2] (setting [5]).

As to `CC(C)CN(C)C(=O)[C@H](S[C@@H]1O[C@H](CO)[C@H](O)[C@H](n2cc(-c3cc(F)c(F)c(F)c3)nn2)[C@H]1O)C1(O)CCOCC1` [Example 2.41.200R., (R)-2-(((2S,3R,4S,5R,6R)-3,5-Dihydroxy-6-(hydroxymethyl)-4-(4-(3,4,5-trifluorophenyl)-1H-1,2,3-triazol-1-yl)tetrahydro-2H-pyran-2-yl)thio)-2-(4-hydroxytetrahydro-2H-pyran-4-yl)-N-isobutyl-N-methylacetamide], the IC50 is 10900 nM in test [1] and 4010 nM in test [2] (Gal-3 inhibition, Table 2, read-out: IC50).

Consider “2-(4,4-Difluoro-1-hydroxycyclohexyl)-2-(((2S,3R,4S,5R,6R)-3,5-dihydroxy-6-(hydroxymethyl)-4-(4-(3,4,5-trifluorophenyl)-1H-1,2,3-triazol-1-yl)tetrahydro-2H-pyran-2-yl)thio)-1-(piperidin-1-yl)ethan-1-one [Example 2.44.208.]”, for which the IC50 in test [1] was 210 nM; in test [2] (setting [3]), 70 nM.

Consider `CN(C(=O)[C@@H](S[C@@H]1O[C@H](CO)[C@H](O)[C@H](n2cc(-c3cc(F)c(F)c(F)c3)nn2)[C@H]1O)C1(O)CCOCC1)c1ccccn1` [Example 2.41.233S.], for which the 50% inhibitory concentration (IC50) in test [1] was found to be 30 nM; in test [2] (setting [6]), 40 nM.

Consider `CCC(O)C(S[C@@H]1O[C@H](CO)[C@H](O)[C@H](n2cc(-c3cc(F)c(F)c(F)c3)nn2)[C@H]1O)C(=O)N1CCC1` (stereo partly drawn) [Example 2.60.206., 1-(Azetidin-1-yl)-2-(((2S,3R,4S,5R,6R)-3,5-dihydroxy-6-(hydroxymethyl)-4-(4-(3,4,5-trifluorophenyl)-1H-1,2,3-triazol-1-yl)tetrahydro-2H-pyran-2-yl)thio)-3-hydroxypentan-1-one], for which the IC50 in test [1] amounted to 3400 nM; in test [2] (setting [7]), 500 nM.

For the compound `CCN(CC1CC1)C(=O)C(S[C@@H]1O[C@H](CO)[C@H](O)[C@H](n2cc(-c3cc(F)c(F)c(F)c3)nn2)[C@H]1OC)C1(O)CCC(F)(F)CC1` (stereo partly drawn) [Example 2.44.239.I.], the concentration for half-maximal inhibition (IC50) in test [1] stood at 20 nM; in test [2] (Table 10, hGal-3, read-out: IC50 (Gal-3 inhibition)) it was 40 nM.

Consider `CN(CC(C)(C)F)C(=O)C(S[C@@H]1O[C@H](CO)[C@H](O)[C@H](n2cc(-c3cc(F)c(F)c(F)c3)nn2)[C@H]1O)C1(O)CCC1` (stereo partly drawn) [Example 2.34.222., 2-(((2S,3R,4S,5R,6R)-3,5-Dihydroxy-6-(hydroxymethyl)-4-(4-(3,4,5-trifluorophenyl)-1H-1,2,3-triazol-1-yl)tetrahydro-2H-pyran-2-yl)thio)-N-(2-fluoro-2-methylpropyl)-2-(1-hydroxycyclobutyl)-N-methylacetamide], for which the IC50 stood at 220 nM in test [1] and 410 nM in test [2] (setting [3]).

`CN(CC1CCOCC1)C(=O)C(S[C@@H]1O[C@H](CO)[C@H](O)[C@H](n2cc(-c3cc(F)c(F)c(F)c3)nn2)[C@H]1O)C1(O)CCOCC1` (stereo partly drawn) [Example 2.41.213., 2-(((2S,3R,4S,5R,6R)-3,5-dihydroxy-6-(hydroxymethyl)-4-(4-(3,4,5-trifluorophenyl)-1H-1,2,3-triazol-1-yl)tetrahydro-2H-pyran-2-yl)thio)-2-(4-hydroxytetrahydro-2H-pyran-4-yl)-N-methyl-N-((tetrahydro-2H-pyran-4-yl)methyl)acetamide]: the IC50 is 200 nM in test [1] and 80 nM in test [2] (setting [5]).

For the compound `CN(C(=O)[C@@H](S[C@@H]1O[C@H](CO)[C@H](O)[C@H](n2cc(-c3cc(F)c(F)c(F)c3)nn2)[C@H]1O)C1(O)CCOCC1)C1COC1` [Example 2.41.235S., (S)-2-(((2S,3R,4S,5R,6R)-3,5-Dihydroxy-6-(hydroxymethyl)-4-(4-(3,4,5-trifluorophenyl)-1H-1,2,3-triazol-1-yl)tetrahydro-2H-pyran-2-yl)thio)-2-(4-hydroxytetrahydro-2H-pyran-4-yl)-N-methyl-N-(oxetan-3-yl)acetamide], the values for the IC50 in test [1] and in test [2] (setting [3]) were 90 nM and 40 nM, respectively.

With `CN(CCN1CCOCC1)C(=O)C(S[C@@H]1O[C@H](CO)[C@H](O)[C@H](n2cc(-c3cc(F)c(F)c(F)c3)nn2)[C@H]1O)C(C)(C)O` (stereo partly drawn) [Example 2.31.230., 2-(((2S,3R,4S,5R,6R)-3,5-Dihydroxy-6-(hydroxymethyl)-4-(4-(3,4,5-trifluorophenyl)-1H-1,2,3-triazol-1-yl)tetrahydro-2H-pyran-2-yl)thio)-3-hydroxy-N,3-dimethyl-N-(2-morpholinoethyl)butanamide], the values for the IC50 in test [1] and in test [2] (setting [4]) were 1250 nM and 110 nM, respectively.

For `CCN(C)C(=O)C(S[C@@H]1O[C@H](CO)[C@H](O)[C@H](n2cc(-c3cc(F)c(F)c(F)c3)nn2)[C@H]1O)C1(O)CCN(S(C)(=O)=O)CC1` (single isomer, unassigned) [Example 2.47.203S.], the IC50 in test [1] was determined as 30 nM; in test [2] (Table 8, hGal-3, read-out: IC50 (Gal-3 inhibition)), 10 nM.

`CCC(O)(CC)C(S[C@@H]1O[C@H](CO)[C@H](O)[C@H](n2cc(-c3cc(F)c(F)c(F)c3)nn2)[C@H]1O)C(=O)N(C)CC1CC1` (stereo partly drawn) [Example 2.32.218., N-(Cyclopropylmethyl)-2-(((2S,3R,4S,5R,6R)-3,5-dihydroxy-6-(hydroxymethyl)-4-(4-(3,4,5-trifluorophenyl)-1H-1,2,3-triazol-1-yl)tetrahydro-2H-pyran-2-yl)thio)-3-ethyl-3-hydroxy-N-methylpentanamide]: the IC50 in test [1] was 1130 nM; in test [2] (setting [4]), 710 nM.
